Assay results from ChEMBL document CHEMBL3352218, “Structural basis for inhibition of mycobacterial and human adenosine kinase by 7-substituted 7-(Het)aryl-7-deazaadenine ribonucleosides” (J Med Chem, 2014).
In brackets after ≈: the same amount, converted by molar mass. Activity calls are given as the source filed them. The calls are words filed in the database; no cut-off is given here.

Tests used:
[1] = test system: BJ; assay: Cytotoxicity against human BJ cells by MTT assay; format: functional
[2] = test system: MRC5; assay: Cytotoxicity against human MRC5 cells by MTT assay; format: functional
[3] = target: T1, Adenosine kinase (Homo sapiens, UniProt P55263); assay: Inhibition of human ADK expressed in Escherichia coli BL21(DE3) cells using [3H]adenosine by liquid scintillation counting method
Target sequence in this assay (P55263 whole entry): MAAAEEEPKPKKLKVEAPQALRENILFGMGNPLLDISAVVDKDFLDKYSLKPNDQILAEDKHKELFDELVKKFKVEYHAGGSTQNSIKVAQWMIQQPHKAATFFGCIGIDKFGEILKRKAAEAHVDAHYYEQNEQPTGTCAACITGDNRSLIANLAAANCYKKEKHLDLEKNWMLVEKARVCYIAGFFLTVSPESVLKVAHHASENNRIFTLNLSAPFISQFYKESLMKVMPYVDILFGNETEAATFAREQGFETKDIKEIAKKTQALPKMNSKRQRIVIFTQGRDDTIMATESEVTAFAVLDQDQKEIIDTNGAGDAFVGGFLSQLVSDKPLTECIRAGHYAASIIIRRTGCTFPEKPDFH

[4] = Inhibition of Mycobacterium tuberculosis ADK expressed in Escherichia coli BL21(DE3) cells using [3H]adenosine by liquid scintillation counting method
[5] = test system: Mycobacterium tuberculosis; assay: Antimycobacterial activity against Mycobacterium tuberculosis H37Rv My 331/88 assessed as microbial growth inhibition incubated for 14 days; format: functional; conditions: H37Rv My 331/88, 336 h
[6] = test system: Mycobacterium tuberculosis; assay: Activity of Mycobacterium tuberculosis ADK expressed in Escherichia coli BL21(DE3) cells assessed as compound phosphorylation by measuring conversion of compound to 5'-phosphate
[7] = target: T1, Adenosine kinase; assay: Activity of human ADK expressed in Escherichia coli BL21(DE3) cells assessed as compound phosphorylation by measuring conversion of compound to 5'-phosphate; parameters: concentration or dose not given beside the values
Target sequence in this assay (P55263 2-362 limits assumed): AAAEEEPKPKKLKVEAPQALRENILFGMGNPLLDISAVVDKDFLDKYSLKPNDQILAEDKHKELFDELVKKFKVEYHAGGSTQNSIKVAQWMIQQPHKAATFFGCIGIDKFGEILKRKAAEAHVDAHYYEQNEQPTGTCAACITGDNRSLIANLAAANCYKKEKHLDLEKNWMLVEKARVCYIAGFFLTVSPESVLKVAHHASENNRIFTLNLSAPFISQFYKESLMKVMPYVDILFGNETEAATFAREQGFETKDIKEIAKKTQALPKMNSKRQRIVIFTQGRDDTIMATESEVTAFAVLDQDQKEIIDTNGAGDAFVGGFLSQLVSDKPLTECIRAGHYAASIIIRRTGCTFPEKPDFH

SMILES | CC50 [1] | CC50 [2] | IC50 [3] | IC50 [4] | MIC [5] | Activity [6] | Activity [7]
Nc1ncnc2c1c(-c1ccc(C(F)(F)F)cc1)cn2[C@@H]1O[C@H](CO)[C@@H](O)[C@H]1O | 62 µM | 78.8 µM | > 10 µM | > 10 µM | 4 µM (≈ 1.64 µg/mL) | inactive | –
Nc1ncnc2c1c(-c1cn[nH]c1)cn2[C@@H]1O[C@H](CO)[C@@H](O)[C@H]1O | 48.9 µM | 71.2 µM | > 10 µM | > 5 µM | 125 µM (≈ 41.5 µg/mL) | inactive | 9%
Nc1ncnc2c1c(-c1ccc(COc3cccc4ccccc34)cc1)cn2[C@@H]1O[C@H](CO)[C@@H](O)[C@H]1O | > 100 µM | 92.1 µM | > 20 µM | > 10 µM | 16 µM (≈ 7.98 µg/mL) | inactive | –
Nc1ncnc2c1c(-c1cc3ccccc3o1)cn2[C@@H]1O[C@H](CO)[C@@H](O)[C@H]1O | 21.2 µM | 35.1 µM | – | 1.8 µM | 16 µM (≈ 6.12 µg/mL) | inactive | –
Nc1ncnc2c1c(-c1cccc3c1Sc1ccccc1S3)cn2[C@@H]1O[C@H](CO)[C@@H](O)[C@H]1O | > 100 µM | 68.5 µM | > 10 µM | 2.06 µM | 62.5 µM (≈ 30 µg/mL) | inactive | –
NNC(=O)c1ccncc1 [ISONIAZID] | – | – | – | – | 0.5 µM (≈ 0.0686 µg/mL) | – | –
Nc1ncnc2c1c(-c1cc[nH]c1)cn2[C@@H]1O[C@H](CO)[C@@H](O)[C@H]1O | 10.1 µM | 5.05 µM | 4.5 µM | > 10 µM | 62.5 µM (≈ 20.7 µg/mL) | inactive | 20%
Nc1ncnc2c1c(-c1cc[nH]n1)cn2[C@@H]1O[C@H](CO)[C@@H](O)[C@H]1O | 9.51 µM | 0.18 µM | – | > 10 µM | > 250 µM | inactive | 7%
Nc1ncnc2c1c(/C=C/c1ccccc1)cn2[C@@H]1O[C@H](CO)[C@@H](O)[C@H]1O | 19.6 µM | 48.2 µM | > 10 µM | 0.9 µM | 8 µM (≈ 2.95 µg/mL) | inactive | –
Nc1ncnc2c1c(-c1c[nH]nn1)cn2[C@@H]1O[C@H](CO)[C@@H](O)[C@H]1O | 0.08 µM | 0.1 µM | > 20 µM | > 10 µM | > 250 µM | inactive | 37%
Nc1ncnc2c1c(-c1ccc(-c3ccc4ccccc4c3)cc1)cn2[C@@H]1O[C@H](CO)[C@@H](O)[C@H]1O | 0.12 µM | 64.2 µM | > 20 µM | > 10 µM | 62.5 µM (≈ 29.3 µg/mL) | inactive | –
COc1cc(-c2cn([C@@H]3O[C@H](CO)[C@@H](O)[C@H]3O)c3ncnc(N)c23)cc(OC)c1OC | > 100 µM | > 100 µM | > 10 µM | > 10 µM | 8 µM (≈ 3.46 µg/mL) | inactive | –
CC(C)(C)c1ccc(-c2cn([C@@H]3O[C@H](CO)[C@@H](O)[C@H]3O)c3ncnc(N)c23)cc1 | > 100 µM | 96.3 µM | > 20 µM | > 10 µM | 62.5 µM (≈ 24.9 µg/mL) | inactive | –
CC(C)Oc1ccc(-c2cn([C@@H]3O[C@H](CO)[C@@H](O)[C@H]3O)c3ncnc(N)c23)cc1 | 59.9 µM | 50.2 µM | > 10 µM | 13.1 µM | 32 µM (≈ 12.8 µg/mL) | inactive | –
Nc1ncnc2c1c(-c1ccc3c4c(cccc14)CC3)cn2[C@@H]1O[C@H](CO)[C@@H](O)[C@H]1O | 23.1 µM | > 100 µM | > 10 µM | > 10 µM | 16 µM (≈ 6.7 µg/mL) | inactive | –
Nc1ncnc2c1c(-c1cccs1)cn2[C@@H]1O[C@H](CO)[C@@H](O)[C@H]1O | 65.4 µM | 39.4 µM | – | > 10 µM | 8 µM (≈ 2.79 µg/mL) | inactive | 2%
Nc1ncnc2c1c(-c1ccc3ccccc3c1)cn2[C@@H]1O[C@H](CO)[C@@H](O)[C@H]1O | 13.9 µM | 13.6 µM | – | 5.33 µM | 2 µM (≈ 0.785 µg/mL) | inactive | –
Nc1ncnc2c1c(-c1ncc[nH]1)cn2[C@@H]1O[C@H](CO)[C@@H](O)[C@H]1O | 1.48 µM | 0.15 µM | > 20 µM | > 3 µM | > 250 µM | inactive | 19%
COc1ccc(-c2cn([C@@H]3O[C@H](CO)[C@@H](O)[C@H]3O)c3ncnc(N)c23)cc1 | 21.9 µM | 61.4 µM | > 5 µM | > 10 µM | 16 µM (≈ 5.96 µg/mL) | inactive | –
CSc1ccc(-c2cn([C@@H]3O[C@H](CO)[C@@H](O)[C@H]3O)c3ncnc(N)c23)cc1 | 18 µM | 45.6 µM | – | > 10 µM | 4 µM (≈ 1.55 µg/mL) | inactive | –
Nc1ncnc2c1c(-c1cc3ccccc3c3ccccc13)cn2[C@@H]1O[C@H](CO)[C@@H](O)[C@H]1O | > 100 µM | 66 µM | > 10 µM | > 10 µM | 32 µM (≈ 14.2 µg/mL) | inactive | –
Cc1ccc(-c2cn([C@@H]3O[C@H](CO)[C@@H](O)[C@H]3O)c3ncnc(N)c23)cc1C | 57.3 µM | 37.9 µM | > 20 µM | 4.9 µM | 8 µM (≈ 2.96 µg/mL) | inactive | –
Nc1ncnc2c1c(-c1ccc3c(c1)OCO3)cn2[C@@H]1O[C@H](CO)[C@@H](O)[C@H]1O | 15.5 µM | 46 µM | > 10 µM | > 10 µM | 8 µM (≈ 3.09 µg/mL) | inactive | –
Nc1ncnc2c1c(-c1cccc3ccccc13)cn2[C@@H]1O[C@H](CO)[C@@H](O)[C@H]1O | 90.6 µM | 94.4 µM | – | > 10 µM | 32 µM (≈ 12.6 µg/mL) | inactive | –
Nc1ncnc2c1c(-c1cccc3c1oc1ccccc13)cn2[C@@H]1O[C@H](CO)[C@@H](O)[C@H]1O | > 100 µM | 100 µM | > 10 µM | 0.6 µM | 4 µM (≈ 1.73 µg/mL) | inactive | –
Nc1ncnc2c1c(-c1ccccc1)cn2[C@@H]1O[C@H](CO)[C@@H](O)[C@H]1O | 50.9 µM | 21 µM | – | > 10 µM | 8 µM (≈ 2.74 µg/mL) | inactive | –
Nc1ncnc2c1c(-c1ccc(-c3ccccc3)cc1)cn2[C@@H]1O[C@H](CO)[C@@H](O)[C@H]1O | 40.6 µM | 93.7 µM | > 20 µM | 7.67 µM | 4 µM (≈ 1.67 µg/mL) | inactive | –
Nc1ncnc2c1c(-c1ccsc1)cn2[C@@H]1O[C@H](CO)[C@@H](O)[C@H]1O | 12.9 µM | 42.5 µM | – | 6.6 µM | 8 µM (≈ 2.79 µg/mL) | inactive | 2%
Nc1ncnc2c1c(-c1ccoc1)cn2[C@@H]1O[C@H](CO)[C@@H](O)[C@H]1O | 91.5 µM | 67.9 µM | – | > 10 µM | 16 µM (≈ 5.32 µg/mL) | inactive | 9%
CC(C)c1ccc(-c2cn([C@@H]3O[C@H](CO)[C@@H](O)[C@H]3O)c3ncnc(N)c23)cc1 | 63.9 µM | 52.9 µM | > 20 µM | > 10 µM | 16 µM (≈ 6.15 µg/mL) | inactive | –
